Laboratory results reported in the NIST ThermoML archive (doi:10.1016/j.fluid.2012.06.014).

Conditions: for viscosity / mass density: 101.33 kPa, Liquid; for viscosity: Capillary tube (Ostwald / Ubbelohde) method; for mass density: Vibrating tube method

CCCCCCn1cc[n+](C)c1.N#C[B-](C#N)(C#N)C#N [1-hexyl-3-methylimidazolium tetracyanoborate]
Conditions	mass density [kg/m3]	viscosity [mPa·s]
293.15 K	993.4	66.61
298.15 K	989.8	49.8
303.15 K	986.2	38.92
308.15 K	982.7	31.04
313.15 K	979.1	25.2
318.15 K	975.6	20.8
323.15 K	972.1	17.41
328.14 K	968.6	14.76
333.14 K	965.2	12.66
338.14 K	961.7	10.97
343.14 K	958.3	9.584
348.14 K	954.9	8.445
353.15 K	951.5	7.497
358.14 K	948.1	6.701
363.14 K	944.8	6.026

Conditions	surface tension liquid-gas [mN/m]
298.15 K, Pendant drop shape	41.1
